# Test results published in patent US7214659B2, “Reduction of the electrocardiographic QT interval” (Creative Peptides Sweden AB, priority 2000, dated 2007).
# Assays:
# [1] = system: IDDM patients with autonomic neuropathy; assay: QTc interval during 3 h i.v. C-peptide infusion, randomized double-blind study (Example 1); format: in vivo, human; details: during three hours of C-peptide i.v., 6 pico mole per kg per minute; basal QTc 0.429±0.004s; decreased significantly, p<0.05
# Method: The QTc interval will vary from patient to patient but can generally be considered prolonged when it exceeds 420 ms in men and 430 ms in women. QTc is the corrected (for heart rate influence) QT interval. It is calculated according to Bazett's formula (QTc=QT/√{square root over (R)}R). QT and RR are conveniently measured using a ruler on an ECG tracing; the QT interval is measured from the beginning of the QRS complex to the end of the crossing of the isoelectric line of the T wave, see the stylised representation in FIG. 1. Any reduction in the interval can be beneficial to the patient, preferably the interval will be reduced by at least 3 ms, more preferably treatment will reduce the QTc interval by at least 5 ms, particularly preferably at least 8 ms even at least 10 ms. […]
# Before and during the three hour session a complete 12 lead electrocardiogram was recorded to evaluate heart rate variability during deep breathing. […] The […] (one patient could not take part in a second session and one patient's ECG tracing was not possible to evaluate) were analyzed blindly by two persons. The RR and QT interval were measured with a ruler. […] Five intervals from the precordial leads and five intervals from the extremity leads were measured on each occasion and a mean was calculated. […]
# [2] = Plasma C-peptide and blood glucose levels during 3 h i.v. C-peptide infusion (Example 1); format: in vivo; details: both sexes, human, iv, during the C-peptide infusion, 6 pico mole per kg per minute i.v. for 180 minutes, 0.11±0.02 nmol/l before the study
# Source text: In this study 12 IDDM patients (six male and six female) with autonomic neuropathy participated in two different sessions in a randomized, double-blind study (one patient attended one time only). Their mean age was 40 and mean duration of diabetes was 21 years. In eight patients the fasting plasma C-peptide levels were below the detection limit (<0.10 nmol/l), the remaining four varied between 0.13 and 0.25 nmol/l. Eleven patients had decreased heart rate variability during deep breathing as evidence of autonomic neuropathy. On each occasion they received insulin i.v. for 9–12 hours before the study and blood glucose levels were tested every 1–2 hours during the night. The insulin infusion was adjusted to achieve euglycaemia (5–6 mmol/l). The patients were then given either saline or C-peptide i.v. for 180 minutes. 6 pico mole per kg per minute was administered.
# IDDM patients = assay: QTc interval after 3 months of s.c. C-peptide, randomised cross over study (Example 2); format: in vivo, human; details: 6 patients with prolonged QTc interval at the outset (>420 ms), 600 nmol per 24 h s.c. in 3 doses
# Method: In a further study (different results from which were published in Diabetic Medicine, Vol. 17 (2000) p. 181–189, Johannson, Bo-Lennart et al.) 21 IDDM patients were monitored for 6 months according to a randomised cross over regimen wherein C-peptide was administered for 3 months and a placebo.
# Further details of the study can be found in the above referenced paper in Diabetic Medicine but in summary, biosynthetic human C-peptide (Eli Lilly Co.) or a placebo comprising just the C-peptide solvent was injected sub-cutaneously 3 times per day. The total 24 h dose of C-peptide was 600 nmol (225 nmol 30 mins before breakfast, 150 nmol before dinner and 225 nmol at bedtime).
# ECGs were recorded at the start of the programme and after 3 and then 6 months of the study. These recordings were then used to measure the QTc interval as described in Example 1.
# patients with IDDM = assay: QTc interval during 3 h C-peptide infusion, randomised double blind study (Example 3); format: in vivo, human; details: infused for 3 hours; NaCl placebo; FIG. 4
# Method: Twelve patients were investigated twice in a randomised double blind study where C-peptide or a NaCl placebo were infused for 3 hours. The same procedure as described in Example 1 was followed.
smiles,measurement,setting,value
CC(C)C[C@H](NC(=O)[C@H](C)NC(=O)[C@H](CC(C)C)NC(=O)[C@@H]1CCCN1C(=O)[C@H](CCC(N)=O)NC(=O)[C@H](CC(C)C)NC(=O)[C@H](CO)NC(=O)CNC(=O)[C@H](C)NC(=O)CNC(=O)[C@@H]1CCCN1C(=O)CNC(=O)CNC(=O)CNC(=O)[C@H](CC(C)C)NC(=O)[C@H](CCC(=O)O)NC(=O)[C@@H](NC(=O)[C@H](CCC(N)=O)NC(=O)CNC(=O)[C@@H](NC(=O)[C@H](CCC(N)=O)NC(=O)[C@H](CC(C)C)NC(=O)[C@H](CC(=O)O)NC(=O)[C@H](CCC(=O)O)NC(=O)[C@H](C)NC(=O)[C@@H](N)CCC(=O)O)C(C)C)C(C)C)C(=O)N[C@@H](CCC(=O)O)C(=O)NCC(=O)N[C@@H](CO)C(=O)N[C@@H](CC(C)C)C(=O)N[C@@H](CCC(N)=O)C(=O)O [C-peptide],mean QTc interval,[1],0.422 ± 0.006 s
same,level at time molar,[2],1.73 ± 0.04 nM
same,"QTc interval, C-peptide phase compared to placebo phase",IDDM patients,clear shortening of the QTc interval
same,QTc interval during C-peptide treatment compared to placebo,patients with IDDM,decrease in QTc interval
